1 compound from US20210290742A1, “METHODS OF USING LYSINE DEACETYLASE (KDAC) INHIBITION TO GENERATE ANTIGEN SPECIFIC MEMORY T CELL RESPONSES FOR DURABLE IMMUNOTHERAPY” (ARIZONA BOARD OF REGENTS ON BEHALF OF THE UNIVERSITY OF …, priority 2018, published 2021) can be followed below.

One test deals with Human Jurkat T cells. Briefly: Early CD69 expression on stimulated Jurkat T cells. In kind it is cell-based. The conditions noted are these: TSA 10 ng/ml, anti-CD3/anti-CD28 stimulation, 2 and 4 hours. The procedure: Human Jurkat T Cells were incubated with anti-CD3/anti-0028 (Ag) in the presence or absence of TSA 10 ng/ml) or anti-CD45/CD28 (unstimulated) antibody mated chamber slides for indicated time points. The cells were harvested, counted and stained for CD69. […] FIGS. 10C and 10D show the percentage (% CD69) and their relative Mean Fluorescence intensity (MFI) at 2 and 4 hours, respectively (h: hour).
(§1) Examples 9-10 were obtained from human Jurkat cell line. Jurkat T cells were […]

The subject of test [1] is TCR proximal signaling (Lck, Zap70, PKCθ phosphorylation). Briefly: Western blot of early TCR signaling proteins (p-Lck, p-Zap70, p-PKCθ) in antigen stimulated CD8+ T cells. Format: cell-based, murine. The following applies: TSA pre-treatment 30 minutes 2.5 ng/ml, vs Ag alone. The procedure: (§2) Lysates from naïve OT-1 cells served as a control (N). Cell lysates were prepared at 0, 15, 60, or 120 minutes post-stimulation and analyzed for p-LcK^Tyr394, p-Zap70, p-PKCe and β-tubulin levels by Western blot analysis. […] The normalized values at indicated time-points are plotted. […] Naïve (shaded histograms, antigen alone (solid line histogram) and antigen plus TSA (histogram indicated by arrow). Error bars are the standard error of mean (SEM) values obtained from three independent experiments. Naïve OT-1 T cells were pre-treated with TSA for 30 minutes and then stimulated with Ag (microspheres bearing H-2K^b/cognate 8 amino acid peptide/B7-1), (h: hour: N: Naïve; A: Ag; A+T: Ag+TSA).
(§3) Examples 1-0 were obtained from a murine transgenic model, from which in vitro stimulated naïve cells were isolated from TCR transgenic mice (OT-1/Rag -/-). In brief, the CD8+ T cells obtained from nave TCR transgenic mice (OT-1/Rag -/-) mice were stimulated in vitro with latex microspheres on which major histocompatibility complex (MHC) Class I (H-2Kb) dimers bearing 10 nM of cognate peptide (Ag) were immobilized, along with 1 μg/ml of recombinant murine […] (co-stimulation) and 2 ng/ml of rmIL-12 (cytokine) (FIG. 1).
(§4) Western blot analysis was conducted to compare the level of phosphorylation of early TCR signaling proteins, Lck, Zap70, and PKCθ, by TSA pre-treatment of antigen stimulated CD8+ T cells. […] Since, the energy sensitive kinase mTORC1 serves as an integrative node for extracellular signals that initiate naïve CD8+ T cells activation, the mTORC1 activity was assessed by measuring the phosphorylation state of the mTORC1 target ribosomal […] (p-S6) by intracellular flow cytometry (FIG. 3D).
In general terms: In western blotting, separated proteins are transferred to a membrane and probed.

In test [2] the test system is antigen stimulated CD8+ T cells. Briefly: CD8 expression asymmetry in antigen stimulated CD8+ T cells at 24 h. The following applies: TSA pre-treated, within 24 h, vs Ag alone. Format: cell-based, murine. The procedure: Results shown are representative of three independent experiments with identical outcomes. (h: hour; hi high; lo; low).
as §3
Accumulating evidence implicates a deterministic role for cellular asymmetry in antigen induced CD8+ T cells division and functional maturation. The KDACi-mediated reduced TCR signaling and mTOR activity were examined to determine their effect on the induction of inherent asymmetry produced in antigen stimulated CD8+ T cells (FIGS. 4A-4D). […] This could be attributed to the lower threshold of early activation/TCR signaling cues available to the TSA primed CD8+ T cells.

Test [3] relates to antigen stimulated CD8 High and CD8 Low T cells. Kind of test: mTORC1 activity, cell cycle and proliferation of FACS sorted CD8 High and CD8 Low cells at 48 h. Format: cell-based, murine. The following applies: total 48 hours. The procedure: Gating strategies and growth profiles of antigen alone (Ag) or TSA induced antigen (Ag+TSA) at 48 hours are shown for CD8 High and CD8 Low populations. Ag and Ag+TSA CD8+ T-cell cultures were FACS sorted on the basis of CD8α expression. […] Solid line histograms represent Ag or Ag+TSA CD8 or High cells and shaded histograms are unstimulated naïve CD8+ T cells. […] Solid line histograms represent Ag or Ag+TSA CD8 Low or High cells and shaded histograms are unstimulated naïve CD8+ T cells. […] Error bars are the standard error of mean (SEM) values obtained from three independent experiments. (h: hour; hi: high; lo: low).
as §3
To determine the implications of the TSA-mediated tuned percentage of CD8 expression on the growth profile, of these cells, the 24 hours Ag and Ag # TSA CD8+ T cells were separated by FACS sorting on the basis of their CD8 expression (FIGS. 5A-5H).

In test [4] the test system is antigen stimulated CD8+ T cells. Briefly: Clonal expansion of antigen stimulated CD8+ T cells. The following applies: TSA 2.5 ng/ml. In kind it is cell-based, murine.
Test [5] has as its system naïve CD8+ (OT-I) T cells. Briefly: Antigen-induced early activation of naïve CD8+ (OT-I) T cells, CD69/CD62L surface staining by flow cytometry. In kind it is cell-based, murine. The conditions noted are these: pre-treatment with TSA 2.5 ng/ml, antigen stimulation 4 hours, vs antigen alone. The procedure:
KDAC inhibition with TSA at 2.5 ng/ml differentially regulates early activation phenotype of antigen stimulated CD8+ T cells. […] Naïve cells (control) are presented in shaded histograms, and antigen stimulated cells (Ag) are shown by the solid line histogram. […] The results shown are representative of five independent experiments with identical outcomes. (N: Naîve; A; Ag; A+T: Ag+TSA).
(§5) Examples 1-0 were obtained from a murine transgenic model, from which in vitro stimulated naïve cells were isolated from TCR transgenic mice (OT-1/Rag -/-). […]
Cognate antigen presented by MHC Class 1 to irate CD8+ T cells in the context of co-stimulation and cytokine leads to rapid (2-4 hours) increases in CD69 expression and decreases in CD62L, which indicate antigen induced early T cell activation response. To characterize early activation of T cells, naïve CD8+(OT-I) T cells were reacted with antigen (Ag; latex microspheres bearing H-2Kb-Fc+/8 amoni acid cognate peptide/rmB7-1) in vitro for 4 hours, cell surface was stained for […] and CD69 expression and evaluated by flow cytometry. […]
For orientation: Flow cytometry measures light scatter and fluorescence of single cells or particles in a stream.

In a further test the test system is mTORC1. Briefly: mTORC1 activity by intracellular flow cytometry of pS6K in antigen stimulated CD8+ T cells. In kind it is cell-based, murine. The following applies: TSA pretreatment, 4 and 8 hours post-antigen stimulation of naïve OT-1 T cells. The procedure:
as §2, §5, §4

In test [6] the test system is IL-2 gene expression in Human Jurkat cells. Briefly: qPCR analysis of antigen-induced IL-2 gene expression in Jurkat T cells. Format: cell-based. The conditions noted are these: anti-CD3/anti-CD28 stimulated Jurkat T cells, 30 min to 16 h, presence vs absence of TSA. The procedure:
IL-2 gene expression is shown in FIG. 11 in stimulated Jurkat T cells in presence or absence of ISA. Cells were incubated on the anti-CD3/anti-CD28 (stimulatory) or anti-CD45 (non-stimulatory) antibody coated chamber slides for 30 min to 16 h, then the total RNA was extracted and performed qPCR analysis of 1L-2 expression. Data shown are the mean fold change of ±SD of three independent experiments. Error bars represent standard deviations. *, statistically significant (p<0.05) and **, p=0.0071 with respect to the values obtained in the presence of TSA. ns, non-significant. (h: hour).
as §1
(In general: In qPCR the cycle at which signal appears reflects the starting amount.)

For the compound `CC(/C=C/C(=O)NO)=C\[C@@H](C)C(=O)c1ccc(N(C)C)cc1` [TSA, Trichostatin A], the “early antigen stimulation (CD69 expression)” value with Human Jurkat T cells is “dampens early antigen stimulation of Jurkat T cells”. Besides, the “phosphorylation of Zap70” value in test [1] (60 minutes) is on record as “reduction”. In addition, the “phosphorylation of PKCθ” value in test [1] (120 minutes) is “reduction”. Moreover, the “phosphorylation of Lck” value in test [1] (by 15 minutes) was “dampened”. Besides, the “proportion of cells with increased expression of CD8” value in test [2] is “lesser proportion of cells to have increased expression of CD8 as compared to Ag alone”. Besides, the “mTORC1 activity (S6Kp) in CD8 Hi cells” value in test [3] (Ag+TSA CD8 Hi vs Ag alone CD8 Hi) is on record as “higher”. Further, the “cell cycle phase of CD8 High cells” value in test [3] (Ag+TSA CD8 High vs Ag CD8 Hi) is given as “enter S phase, comparable to the Ag CD8 Hi cells”. For the same compound, in test [3] (Ag+TSA CD8 Low vs Ag CD8 Low), the “cell cycle phase of CD8 Low cells” value was “retained in the G0-G1 phase of cell cycle and do not enter the S phase”; the “mTORC1 activity (S6Kp) in CD8 Low cells” value is on record as “reduced”. The clonal expansion entry in test [4] is recorded as “reduces clonal expansion”. In test [5], the CD62L shedding result was “increases CD62L shedding” and the CD69 expression result is “reduces antigen dose dependent CD69 expression”. Besides, in the test with mTORC1, the “mTORC1 activity (S6Kp)” value was “dampened mTORC1 activity”. In addition, the IL-2 gene expression result in test [6] is on record as “reduces IL-2 gene expression”.
